In ChEMBL document CHEMBL1135345, “Design and characterization of non-phosphopeptide inhibitors for Src family SH2 domains” (Bioorg Med Chem Lett, 2002):
Where a SMILES comes first, the peptide text is derived from it. [ ]: non-standard residue; d: D form. The star is where a group is joined. pY = N[C@@H](Cc1ccc(OP(=O)(O)O)cc1)C(=O)O; Dopa = N[C@@H](Cc1ccc(O)c(O)c1)C(=O)O; Caffeoyl = O=C(/C=C/c1ccc(O)c(O)c1)*; X1 = O=C(Cc1cc(=O)oc2cc(O)ccc12)*

How the values were obtained:
[1] = target: Tyrosine-protein kinase Lck (Homo sapiens, UniProt P06239); experiment: Affinity for GST-Lck-SH2 domain in ELISA
[2] = target: Proto-oncogene tyrosine-protein kinase Src (Homo sapiens, UniProt P12931); experiment: Affinity for GST- Src-SH2 domain in ELISA
[3] = target: Tyrosine-protein kinase Fyn (Homo sapiens, UniProt P06241); experiment: Affinity for GST-Fyn-SH2 domain in ELISA
Chain of Tyrosine-protein kinase Fyn (P06241 whole entry, the tested form may be a part): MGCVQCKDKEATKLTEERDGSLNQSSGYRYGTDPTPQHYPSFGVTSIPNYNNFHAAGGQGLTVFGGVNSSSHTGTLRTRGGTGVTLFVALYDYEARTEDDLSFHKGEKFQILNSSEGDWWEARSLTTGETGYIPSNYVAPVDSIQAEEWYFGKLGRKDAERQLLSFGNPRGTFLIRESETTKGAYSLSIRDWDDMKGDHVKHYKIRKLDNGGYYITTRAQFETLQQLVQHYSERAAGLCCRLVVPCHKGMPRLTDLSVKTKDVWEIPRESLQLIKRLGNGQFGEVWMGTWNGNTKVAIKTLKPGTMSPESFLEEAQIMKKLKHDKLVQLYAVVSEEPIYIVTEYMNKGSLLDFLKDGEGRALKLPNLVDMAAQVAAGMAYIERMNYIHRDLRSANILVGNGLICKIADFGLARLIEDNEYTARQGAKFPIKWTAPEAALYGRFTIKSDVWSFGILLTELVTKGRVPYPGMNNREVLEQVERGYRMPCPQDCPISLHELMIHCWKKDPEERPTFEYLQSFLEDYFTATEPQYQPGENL

Chain of Tyrosine-protein kinase Lck (P06239 whole entry, the tested form may be a part): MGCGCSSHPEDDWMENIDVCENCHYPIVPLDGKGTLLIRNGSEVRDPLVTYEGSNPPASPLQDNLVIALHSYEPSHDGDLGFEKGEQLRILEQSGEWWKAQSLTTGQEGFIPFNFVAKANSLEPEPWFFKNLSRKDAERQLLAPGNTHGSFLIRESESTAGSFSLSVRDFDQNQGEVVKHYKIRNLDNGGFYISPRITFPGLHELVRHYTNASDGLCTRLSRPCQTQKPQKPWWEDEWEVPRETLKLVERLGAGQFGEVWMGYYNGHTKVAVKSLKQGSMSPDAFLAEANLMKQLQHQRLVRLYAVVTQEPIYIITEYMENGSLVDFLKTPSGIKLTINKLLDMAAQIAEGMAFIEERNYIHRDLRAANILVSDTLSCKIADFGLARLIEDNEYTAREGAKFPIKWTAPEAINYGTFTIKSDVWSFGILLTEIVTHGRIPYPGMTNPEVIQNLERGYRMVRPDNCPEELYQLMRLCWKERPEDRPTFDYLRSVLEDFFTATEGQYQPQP
Chain of Proto-oncogene tyrosine-protein kinase Src (P12931 2-536 limits assumed): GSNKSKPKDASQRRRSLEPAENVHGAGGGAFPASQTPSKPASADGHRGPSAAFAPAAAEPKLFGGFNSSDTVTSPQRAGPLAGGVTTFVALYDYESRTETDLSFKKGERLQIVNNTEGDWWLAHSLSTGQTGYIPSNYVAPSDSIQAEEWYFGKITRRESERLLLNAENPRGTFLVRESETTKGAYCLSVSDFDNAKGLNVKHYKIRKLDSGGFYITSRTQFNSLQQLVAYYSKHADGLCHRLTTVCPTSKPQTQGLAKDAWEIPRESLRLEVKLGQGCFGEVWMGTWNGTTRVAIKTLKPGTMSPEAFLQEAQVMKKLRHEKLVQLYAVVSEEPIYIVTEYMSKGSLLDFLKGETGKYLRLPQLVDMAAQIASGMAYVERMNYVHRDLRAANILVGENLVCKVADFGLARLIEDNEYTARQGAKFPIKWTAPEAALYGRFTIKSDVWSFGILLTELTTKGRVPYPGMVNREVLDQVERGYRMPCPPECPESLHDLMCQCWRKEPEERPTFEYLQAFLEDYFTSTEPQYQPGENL

Row | Compound | IC50 [1] [µM] | IC50 [2] [µM] | IC50 [3] [µM]
1 | CC[C@H](C)[C@H](NC(=O)[C@H](CCC(=O)O)NC(=O)[C@H](CCC(=O)O)NC(=O)[C@H](Cc1ccc(O)c(O)c1)NC(=O)/C=C/c1ccc(O)c(O)c1)C(=O)N[C@@H](CCC(=O)O)C(=O)O (Caffeoyl-[Dopa]EEIE-OH) | 18 | 55 | 33
2 | Ac-YAEIE-OH | 3.8 | 7 | 11
3 | CC[C@H](C)[C@H](NC(=O)[C@H](CCC(=O)O)NC(=O)[C@H](CCC(=O)O)NC(=O)[C@H](Cc1ccc(OP(=O)(O)O)cc1)NC(C)=O)C(=O)N[C@@H](CCC(=O)O)C(=O)O (Ac-[pY]EEIE-OH) | 1.3 | – | 1.1
4 | CC[C@H](C)[C@H](NC(=O)[C@H](CCC(=O)O)NC(=O)[C@H](CCC(=O)O)NC(=O)[C@H](Cc1ccc(OP(=O)(O)O)cc1)NC(=O)Cc1cc(=O)oc2cc(O)ccc12)C(=O)N[C@@H](CCC(=O)O)C(=O)O (X1-[pY]EEIE-OH) | 0.081 | 0.09 | 0.1
5 | CC[C@H](C)[C@H](NC(=O)[C@H](CCC(=O)O)NC(=O)[C@H](CCC(=O)O)NC(=O)[C@H](Cc1ccc(O)c(O)c1)NC(=O)Cc1cc(=O)oc2cc(O)ccc12)C(=O)N[C@@H](CCC(=O)O)C(=O)O (X1-[Dopa]EEIE-OH) | 58 | 65 | 77
6 | Ac-YEEIE-OH | > 200 | > 200 | > 200
7 | CC(=O)N[C@@H](Cc1ccc(O)c(O)c1)C(=O)N[C@@H](CCC(=O)O)C(=O)N[C@@H](CCC(=O)O)C(=O)N[C@@H](CCC(=O)O)C(=O)O (Ac-[Dopa]EEE-OH) | 120 | 160 | > 200
8 | CC[C@H](C)[C@H](NC(=O)[C@H](CCC(=O)O)NC(=O)[C@H](CCC(=O)O)NC(=O)[C@H](Cc1ccc(O)cc1)NC(=O)/C=C/c1ccc(O)c(O)c1)C(=O)N[C@@H](CCC(=O)O)C(=O)O (Caffeoyl-YEEIE-OH) | 27 | 54 | 45
9 | CC[C@H](C)[C@H](NC(=O)[C@H](CCC(=O)O)NC(=O)[C@H](CCC(=O)O)NC(=O)[C@H](Cc1ccc(OP(=O)(O)O)cc1)NC(=O)/C=C/c1ccc(O)c(O)c1)C(=O)N[C@@H](CCC(=O)O)C(=O)O (Caffeoyl-[pY]EEIE-OH) | 0.042 | 0.064 | 0.084
